Reference: patent publication US20060069132A1, “Azolecarboxamide herbicides” (priority 2004, published 2006)

What was measured:
[1] = test system: velvetleaf; assay: Test B pre-/postemergence herbicide test; type: in vivo, Abutilon theophrasti
In short: (§1)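 Evaluation is visual, comparing treated with control plants on a scale where 0 means no effect and 100 means full control. Treatments were preemergence, or postemergence on seedlings 2–18 cm tall, and held 13–15 days in the greenhouse.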

[2] = test system: lambsquarters; assay: Test B pre-/postemergence herbicide test; type: in vivo, Chenopodium album
In short: as §1

[3] = test system: pigweed; assay: Test B pre-/postemergence herbicide test; type: in vivo, Amaranthus retroflexus
In short: as §1

[4] = test system: ducksalad; assay: Test B flooded paddy test; type: in vivo, Heteranthera limosa; settings: 125 g ai/ha, scale 0 to 100 (0 no effect, 100 complete control)
In short: (§2)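 Visual ratings, 0 (no effect) to 100 (complete control), made versus controls after 13–15 d greenhouse. Paddy plants treated at 2-leaf stage; postemergence plants at 1- to 4-leaf stage, 2–18 cm tall.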

[5] = test system: blackgrass; assay: Test B postemergence herbicide test; type: in vivo, Alopecurus myosuroides
In short: as §2

[6] = test system: wheat; assay: Test B postemergence herbicide test; type: in vivo, Triticum aestivum; parameters: key to Wheat plant response rating: 0 = no effect, 100 = complete control
In short: (§3)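 Plants grow to 1- to 4-leaf stage (2–18 cm) for postemergence spraying, or to 2-leaf stage for the paddy test. Formulated compound is applied. Greenhouse holding lasts 13–15 days. Response is scored visually relative to controls, 0 no effect to 100 complete control; a dash means no result.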

[7] = test system: morningglory; assay: Test B pre-/postemergence herbicide test; type: in vivo, Ipomoea coccinea
In short: (§4)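 Visual rating, 0 (no effect) to 100 (complete control), versus untreated controls after 13–15 d in greenhouse. Pre- and postemergence applications (postemergence plants 2–18 cm, 1–4 leaves); flooded paddy arm at 2-leaf stage. Compounds in non-phytotoxic solvent plus surfactant.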

[8] = test system: rice; assay: Test B flooded paddy test; type: in vivo, Oryza sativa; settings: 125 g ai/ha, scale 0 to 100 (0 no effect, 100 complete control)
In short: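 Each value is a visual 0–100 response rating taken against controls 13 to 15 days after treatment in the greenhouse. Plants received formulated chemical postemergence at the 1- to 4-leaf stage or, in flooded paddy, at the 2-leaf stage.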

[9] = test system: barnyardgrass; assay: Test B pre-/postemergence herbicide test; type: in vivo, Echinochloa crus-galli; settings: Postemergence, scale 0 (no effect) to 100 (complete control)
In short: as §4

[10] = test system: giant foxtail; assay: Test B pre-/postemergence herbicide test; type: in vivo, Setaria faberi
In short: as §1

[11] = test system: cocklebur; assay: Test B pre-/postemergence herbicide test; type: in vivo, Xanthium strumarium
In short: as §4

[12] = test system: corn; assay: Test B pre-/postemergence herbicide test; type: in vivo, Zea mays
In short: as §1

[13] = test system: barnyardgrass; assay: Test B flooded paddy test; type: in vivo, Echinochloa crus-galli; settings: 125 g ai/ha, scale 0 to 100 (0 no effect, 100 complete control)
In short: as §2

[14] = test system: small flower umbrella sedge; assay: Test B flooded paddy test; type: in vivo, Cyperus difformis; settings: 125 g ai/ha, scale 0 to 100 (0 no effect, 100 complete control)
In short: as §2

[15] = test system: large crabgrass; assay: Test B pre-/postemergence herbicide test; type: in vivo, Digitaria sanguinalis
In short: as §1

[16] = test system: Surinam grass; assay: Test B pre-/postemergence herbicide test; type: in vivo, Urochloa decumbens
In short: as §1

[17] = test system: wild oat; assay: Test B postemergence herbicide test; type: in vivo, Avena fatua
In short: as §3

[18] = Postemergence, 500 g ai/ha, scale 0 (no effect) to 100 (complete control)
[19] = postemergence, 125 g ai/ha, scale 0 to 100
[20] = 500 g ai/ha, scale 0 to 100, 0 no effect, 100 complete control, preemergence

| SMILES | Velvetleaf plant response rating [1, 18] | Velvetleaf plant response rating [1, 19] | Lambsquarters plant response rating [2, 18] | Lambsquarters plant response rating [2, 19] | Pigweed plant response rating [3, 18] | Pigweed plant response rating [3, 19] | Ducksalad plant response rating [4] | Blackgrass plant response rating [5, 18] | Blackgrass plant response rating [5, 19] | Wheat plant response rating [6, 20] | Wheat plant response rating [6, 18] | Wheat plant response rating [6, 19] | Morningglory plant response rating [7, 18] | Morningglory plant response rating [7, 19] | Rice plant response rating [8] | Barnyardgrass plant response rating ([9]; 125 g ai/ha) | Barnyardgrass plant response rating ([9]; 500 g ai/ha) | Foxtail, Giant plant response rating [10, 18] | Foxtail, Giant plant response rating [10, 19] | Cocklebur plant response rating [11, 18] | further results |
| --- | --- | --- | --- | --- | --- | --- | --- | --- | --- | --- | --- | --- | --- | --- | --- | --- | --- | --- | --- | --- | --- |
| CCNC(=O)c1cccc(NC(=O)c2nn(C(C)(C)C)nc2Br)c1 [Compound 434] | 20 | 10 | 70 | 40 | 60 | 40 | 70 | 50 | 30 | 90 | 50 | 40 | 70 | 60 | 70 | 10 | 30 | 30 | 20 | 70 | Cocklebur plant response rating [11, 19]: 50; Corn plant response rating [12, 18]: 40; Corn plant response rating [12, 19]: 40; Barnyardgrass plant response rating [13]: 60; Sedge, Umbrella plant response rating [14]: 90; Crabgrass, Large plant response rating [15, 18]: 30; Crabgrass, Large plant response rating [15, 19]: 20; Surinam Grass plant response rating [16, 18]: 20; Surinam Grass plant response rating [16, 19]: 10; Oat, Wild plant response rating [17, 18]: 60; Oat, Wild plant response rating [17, 19]: 50 |
| CC(C)(C)n1nc(Br)c(C(=O)Nc2cccc(C(=O)NC3CC3)c2)n1 [Compound 435] | 20 | 10 | 60 | 50 | 60 | 40 | 0 | 30 | 20 | 10 | 60 | 20 | 90 | 70 | 0 | 10 | 10 | 30 | 20 | 20 | Cocklebur plant response rating [11, 19]: 20; Corn plant response rating [12, 18]: 30; Corn plant response rating [12, 19]: 20; Barnyardgrass plant response rating [13]: 0; Sedge, Umbrella plant response rating [14]: 0; Crabgrass, Large plant response rating [15, 18]: 30; Crabgrass, Large plant response rating [15, 19]: 10; Surinam Grass plant response rating [16, 18]: 30; Surinam Grass plant response rating [16, 19]: 20; Oat, Wild plant response rating [17, 18]: 60; Oat, Wild plant response rating [17, 19]: 50 |
| C=CCNC(=O)c1ccc(F)c(N(C(C)=O)C(=O)c2cc(C(C)(C)C)nn2CC)c1 [Compound 443] | 50 | 50 | 80 | 70 | 80 | 60 | 70 | 40 | 30 | 100 | 50 | 40 | 60 | 50 | 70 | 20 | 30 | 40 | 30 | 80 | Cocklebur plant response rating [11, 19]: 50; Corn plant response rating [12, 18]: 20; Corn plant response rating [12, 19]: 20; Barnyardgrass plant response rating [13]: 80; Sedge, Umbrella plant response rating [14]: 80; Crabgrass, Large plant response rating [15, 18]: 30; Crabgrass, Large plant response rating [15, 19]: 20; Surinam Grass plant response rating [16, 18]: 20; Surinam Grass plant response rating [16, 19]: 20; Oat, Wild plant response rating [17, 18]: 60; Oat, Wild plant response rating [17, 19]: 40 |
| C=Cc1nn(C(C)(C)C)nc1C(=O)Nc1cccc(C(=O)N(C)C)c1 [Compound 445] | 50 | 50 | 80 | 60 | 60 | 50 | 80 | 50 | 40 | 100 | 50 | 30 | 80 | 60 | 80 | 30 | 40 | 30 | 30 | 80 | Cocklebur plant response rating [11, 19]: 40; Corn plant response rating [12, 18]: 40; Corn plant response rating [12, 19]: 20; Barnyardgrass plant response rating [13]: 90; Sedge, Umbrella plant response rating [14]: 80; Crabgrass, Large plant response rating [15, 18]: 40; Crabgrass, Large plant response rating [15, 19]: 30; Surinam Grass plant response rating [16, 18]: 30; Surinam Grass plant response rating [16, 19]: 20; Oat, Wild plant response rating [17, 18]: 60; Oat, Wild plant response rating [17, 19]: 40 |
